Biological target: T1, Estrogen receptor (Homo sapiens, UniProt P03372)
T1 sequence (P03372 whole entry): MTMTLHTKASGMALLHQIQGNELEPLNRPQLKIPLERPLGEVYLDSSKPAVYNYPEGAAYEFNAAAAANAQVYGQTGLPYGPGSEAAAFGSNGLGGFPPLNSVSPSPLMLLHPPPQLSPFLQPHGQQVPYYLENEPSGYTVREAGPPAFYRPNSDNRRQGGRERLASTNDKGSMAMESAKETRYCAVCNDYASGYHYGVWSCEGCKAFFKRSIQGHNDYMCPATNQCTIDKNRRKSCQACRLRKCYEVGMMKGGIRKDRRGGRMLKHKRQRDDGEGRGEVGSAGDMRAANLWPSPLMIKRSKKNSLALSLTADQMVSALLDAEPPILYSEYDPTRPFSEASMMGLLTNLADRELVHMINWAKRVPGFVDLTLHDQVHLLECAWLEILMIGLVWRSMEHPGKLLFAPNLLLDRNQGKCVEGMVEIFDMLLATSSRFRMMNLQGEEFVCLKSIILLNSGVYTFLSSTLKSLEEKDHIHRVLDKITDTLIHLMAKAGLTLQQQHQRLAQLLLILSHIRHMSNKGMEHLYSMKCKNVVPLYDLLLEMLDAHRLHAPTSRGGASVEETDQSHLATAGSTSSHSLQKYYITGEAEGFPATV
Experiment: Displacement of iodoacetamide-fluorescein-labeled SRC3 from ERalpha by TR-FRET assay

SMILES | Ki [µM]
COC(=O)C(N)CC1(C)CC2CCC1CC2C(C)(C)CCNC(=O)CCC(C)C (stereo unspecified) | 32
COC(=O)C(CC1(C)CC2CCC1CC2C(C)(C)CCNC(=O)CCC(C)C)NC(=O)OCc1ccccc1 (stereo unspecified) | 38
COC(=O)C(=CC1(C)CC2C=CC1CC2C(C)(C)CCNC(=O)CCC(C)C)C(=O)OC (stereo unspecified) | 7.9
COC(=O)C(CC1(C)CC2CCC1CC2C(C)(C)CCNC(=O)CCC(C)C)C(=O)O (stereo unspecified) | 12

Now those with a lower Ki, led by results:

Ki [µM] | SMILES
0.19 | CC[C@H](C)[C@H](NC(=O)[C@H](CCCCN)NC(=O)[C@H](Cc1c[nH]cn1)NC(=O)[C@H](CCCNC(=N)N)NC(=O)[C@H](CCC(=O)O)NC(=O)[C@@H](NC(=O)[C@@H](N)CC(C)C)[C@@H](C)O)C(=O)N[C@@H](CC(C)C)C(=O)N[C@@H](Cc1c[nH]cn1)C(=O)N[C@@H](CCCNC(=N)N)C(=O)N[C@@H](CC(C)C)C(=O)N[C@@H](CC(C)C)C(=O)N[C@@H](CCC(N)=O)C(=O)N[C@@H](CCC(=O)O)C(=O)NCC(=O)N[C@@H](CO)C(=O)N1CCC[C@H]1C(=O)N[C@@H](CO)C(=O)N[C@@H](CC(=O)O)C(=O)O
7.1 | COC(=O)C(CC1(C)CC2CCC1CC2C(C)(C)CCNC(=O)CCC(C)C)C(=O)OC (stereo unspecified)

Source: ChEMBL document CHEMBL1149553, “Bicyclo[2.2.2]octanes: close structural mimics of the nuclear receptor-binding motif of steroid receptor coactivators” (Bioorg Med Chem Lett, 2007)
